Measurements reported in publication PMC10490226, “Synthesis, Characterization, and Anticancer Activity of New N,N′-Diarylthiourea Derivative against Breast Cancer Cells” (Molecules, 2023).

Experiments:
breast cancer cells = system: breast cancer cells; set-up: method as in doi:10.31788/RJC.2022.1536976; conditions: read-out: IC50 concentration against the viability of breast cancer cells; cited from earlier work
MCF-7 cells [1] = test: MTT cytotoxicity test on MCF-7 cells; assay type: cell-based; conditions: Homo sapiens; for IC50: MCF7, 24 h, MTT, 24 h incubation, doses 50 to 1000 µM, mean of three, read-out: IC50 concentration, 50% inhibition of MCF-7 cell viability; for viability at 50 µM / viability at 100 µM / viability at 150 µM / viability at 300 µM / viability at 600 µM / viability at 1000 µM: MCF7, 24 h, read-out: Cell Viability %; for viability at 50 µM: MCF-7, dose 50 µM; for viability at 100 µM: MCF-7, dose 100 µM; for viability at 150 µM: MCF-7, dose 150 µM; for viability at 300 µM: MCF-7, dose 300 µM; for viability at 600 µM: MCF-7, dose 600 µM; for viability at 1000 µM: MCF-7, dose 1000 µM
Description: (§1) The human cells that were utilized in the study included breast cancer cells, specifically the MCF-7 cell lines, along with normal lung cells, specifically the WI38 cell lines. These cell lines were taken from the American Type Culture Collection (ATCC). These cells were maintained in RPMI media with penicillin (100 U/mL), glutamine, 10% fetal bovine serum, and streptomycin ([…]) in a humidified incubator (5% CO2, 37 °C).
As indicated before, the prepared compounds (1–6) were tested for their capacity to inhibit the growth of MCF-7 cancer cells, employing the MTT experiment. In short, 1 × 10^5 of MCF-7 cells/mL were seeded into each well of a 96-well plate and cultured in the growth mixture at 37 °C overnight. The MCF-7 cells were then exposed to the test compounds at 37 °C for 24 h at doses that ranged from 50 to 1000 µM.
The cells were then observed under an inverted microscope (Leica DMI3000B, Mannheim, Germany) for toxicity markers in both the control and treated cells. Following this, the cells were subjected to MTT solution, which caused MTT to be converted into formazan (MTT’s metabolic product), the amount of which was directly proportionate to the total number of viable cells. The formazan crystal was then extracted from the cells by treating them with dimethyl sulfoxide. Microplate reader (Bio-Rad, Hercules, CA, USA) readings were taken at 570 nm, and the percentage of live MCF-7 cells was calculated using the following Formula (1) to indicate the influence of the studied compounds on the proliferation of the tested cells. Cell viability % = (Abs. of tested compound − Abs. of blank)/(Abs. of control − Abs. of blank) × 100 (1)
(§2) The half-suppressing dose (IC50) of the tested compounds was estimated via a dose-response curve following incubation for 24 h. To further determine whether the compounds were safe for use on living tissues, the MTT technique was used at concentrations ranging from 50 to 1000 µM to analyze the influence of the compounds on the viability of healthy WI38 cells. Results are presented as the mean of three independent evaluations of each value.

wi38 cells = test: MTT viability test on normal WI38 lung cells; assay type: cell-based, human
Description: as §1, §2

MCF-7 cells [2] = test: Lactate dehydrogenase (LDH) leakage test (ELISA); assay type: cell-based, human; conditions: untreated control 85.35 ± 4.2 U/L, p < 0.001
Description: The levels of the released lactate dehydrogenase enzyme (LDH) in compound 4-treated MCF-7 cells were detected using the double-antibody sandwich ELISA technique (SunRed, Cat. N. 201-28-0094) to further estimate the cytotoxic impact of the tested compound 4 against MCF-7 cells. In brief, the compound 4-treated MCF-7 cancer cells were centrifuged, and 40 µL of the resulted supernatant was added to the tested wells. Following this, LDH-antibody (10 µL) and Streptavidin-HRP (50 µL) were transferred to each well for analysis. Subsequently, the 96-well plate was gently shaken, and incubated for 60 min at 37 °C. Following washing, chromogen solution A (50 µL) and chromogen solution B (50 µL) were transferred to each of the test wells, and the plates were left to incubate at 37 Celsius, out of the light, for 10 min. Next, each well was treated with stop solution (50 µL). Finally, the optical density, OD, for the tested plate was measured at 450 nm. Using the prepared standard curve, the concentration of the released LDH was estimated.

MCF-7 cells [3] = test: DNA fragmentation analysis by comet assay; assay type: cell-based, human
Description: Prior to subjecting the MCF-7 cells to compound 4, they were exposed to a caspase-3 inhibitor (Z-DEVD-FMK) in order to assess the potential involvement of caspase-3 activity in the DNA damage induced by compound 4. The occurrence of DNA damage was assessed in MCF-7 cells treated with compound 4 only (IC50 concentration) and MCF-7 cells that were pretreated with Z-DEVD-FMK (50 μM) for 1 h and then treated with compound 4 (IC50 concentration) for 24 h, utilizing the comet test. Fragmentation causes the broken DNA to be separated from the healthy cellular DNA, generating a comet tail that can be identified under a fluorescence microscope. Comet parameters were calculated using TriTek Comet Score™ software (TriTek Corp., Herndon, VA, USA), following a computerized image analysis system that recorded 100 photographs of randomly shaped comets for each slide. The tail moment and tail DNA, two often-employed markers, were combined for data finding. The Olive tail moment (OTM) has been honed to be the most precise method for assessing DNA damage. In accordance with the following Equation (2), its value can be determined by the tail’s DNA concentration and DNA mobility. OTM = quantity of tail moment × quantity of tail DNA/100(2)

[4] = system: cleaved caspase-3 (activated caspase-3); test: ELISA quantification of active (cleaved) caspase-3 in MCF-7 cells; assay type: cell-based, human; conditions: MCF-7, IC50 dose (338.33 µM), p < 0.001, result in words
Description: The expression levels of the human active caspase-3 protein when cleaved at Asp175/Ser176 were measured in compound 4-treated MCF-7 cells, using an ELISA method (Invitrogen, Waltham, MA, USA, Catalog # KHO1091). In a nutshell, after incubating the tested compound 4 with MCF-7 cell cultures for 2 h, the supernatant (100 μL) was plated into a 96-well ELISA plate, and the resulting pellets were discarded. Each well was then suspended with 100 μL of a caspase-3 (active) antibody detection solution and left to incubate at room temperature for 1 h. The solution was then decanted from the wells and rinsed four times. Furthermore, HRP-Anti-Rabbit Antibody solution (100 µL) was added to each well, and the plate was incubated for 30 min at room temperature. A stabilized chromogen substrate (100 µL) was transferred to each well, and the plate was allowed to incubate for 30 min at room temperature, in darkness. At 450 nm, optical density readings were taken from the tested plate after adding 100 µL of stop solution to each well. Utilizing a standard curve, the quantity of active caspase-3 protein in the treated MCF-7 cells was calculated.

[5] = IC50 concentration 24 h, with caspase-3 inhibitor Z-DEVD-FMK (50 μM, 1 h) pretreatment

Compound	IC50 (breast cancer cells)	IC50 (MCF-7 cells [1])	viability at 50 µM (MCF-7 cells [1])	viability at 100 µM (MCF-7 cells [1])	viability at 150 µM (MCF-7 cells [1])	viability at 300 µM (MCF-7 cells [1])	viability at 600 µM (MCF-7 cells [1])	viability at 1000 µM (MCF-7 cells [1])	IC50 (wi38 cells; Homo sapiens, WI-38, doses 50 to 1000 µM)	Cytotoxic effects on normal human lung cells (wi38 cells) (wi38 cells; result in words)	LDH levels in treated MCF-7 cells (MCF-7 cells [2])	% DNA in Tail (MCF-7 cells [3]; [5])	Olive Tail Moment (OTM) (MCF-7 cells [3]; [5])	Tail Length (PX) (MCF-7 cells [3]; [5])	Tail Moment (MCF-7 cells [3]; [5])	Tail Moment (MCF-7 cells [3]; IC50 concentration, without caspase-3 inhibitor pretreatment, control 0.22 ± 0.02)	Olive Tail Moment (OTM) (MCF-7 cells [3]; IC50 concentration, without caspase-3 inhibitor pretreatment, control 0.55 ± 0.02)	% DNA in Tail (MCF-7 cells [3]; IC50 concentration, without caspase-3 inhibitor pretreatment, control 3.11 ± 1.73)	Tail Length (PX) (MCF-7 cells [3]; IC50 concentration, without caspase-3 inhibitor pretreatment, control 7.52 ± 1.82)	Cleaved caspase-3 (activated caspase-3) levels versus untreated cells [4]
C=CCNC(=S)NC(=O)c1ccc([N+](=O)[O-])cc1 [4-nitrobenzoyl-3-allylthiourea]	225 µM	–	–	–	–	–	–	–	–	–	–	–	–	–	–	–	–	–	–	–
CCCCCCOc1ccc(NC(=O)Nc2ccccc2)cc1 [Compound 1, 1-(4-(hexyloxy)phenyl)-3-phenylurea]	–	726.6 ± 1.29 µM	98.6 ± 2.21%	87.3 ± 1.34%	80.6 ± 2.76%	67.2 ± 1.13%	57.2 ± 2.44%	36.4 ± 1.34%	–	–	–	–	–	–	–	–	–	–	–	–
CCCCCCCCOc1ccc(NC(=O)Nc2ccccc2)cc1 [Compound 2, 1-(4-(octyloxy)phenyl)-3-phenylurea]	–	527.2 ± 1.28 µM	98.8 ± 2.26%	88.6 ± 2.22%	72.2 ± 2.13%	49.9 ± 1.77%	38.3 ± 1.97%	23.3 ± 2.33%	–	–	–	–	–	–	–	–	–	–	–	–
CCCCCCCCCCCCCCCCOc1ccc(NC(=O)Nc2ccccc2)cc1 [Compound 3, 1-(4-(hexadecyloxy)phenyl)-3-phenylurea]	–	619.7 ± 4.33 µM	97.3 ± 2.45%	93.6 ± 1.82%	80.7 ± 2.44%	64.9 ± 1.66%	56.7 ± 2.55%	20.9 ± 2.75%	–	–	–	–	–	–	–	–	–	–	–	–
CCCCCCOc1ccc(NC(=S)Nc2ccc(F)cc2)cc1 [Compound 4, 1-(4-fluorophenyl)-3-(4-(hexyloxy)phenyl)thiourea]	–	338.3 ± 1.52 µM	100 ± 2.24%	90.2 ± 2.78%	48.1 ± 1.15%	21.2 ± 1.66%	18.3 ± 1.92%	7.28 ± 2.56%	1463 ± 4.78 µM	no cytotoxic effects	521.77 ± 30.8 U/L	14.37 ± 1.33 %	1.87 ± 0.34	7.13 ± 2.21 PX	1.04 ± 0.04	1.72 ± 0.05	2.38 ± 0.06	17.26 ± 2.34 %	6.67 ± 1.94 PX	significantly elevated
CCCCCCCCOc1ccc(NC(=S)Nc2ccc(F)cc2)cc1 [Compound 5, 1-(4-fluorophenyl)-3-(4-(octyloxy)phenyl)thiourea]	–	567.8 ± 4.28 µM	98.6 ± 2.53%	96.5 ± 2.33%	79.5 ± 1.92%	62 ± 1.84%	45.4 ± 2.74%	18 ± 1.45%	–	–	–	–	–	–	–	–	–	–	–	–
CCCCCCCCCCCCCCCCOc1ccc(NC(=S)Nc2ccc(F)cc2)cc1 [Compound 6, 1-(4-fluorophenyl)-3-(4-(hexadecyloxy)phenyl)thiourea]	–	711.9 ± 2.5 µM	96.4 ± 2.63%	91.7 ± 2.47%	84.1 ± 1.83%	79.2 ± 2.64%	46.9 ± 2.34%	36.7 ± 1.66%	–	–	–	–	–	–	–	–	–	–	–	–
